target: CK2A1 (CK2α/β) (Homo sapiens, UniProt P68400); test: CK2 kinase assay, CK2A1 (CK2α/β); assay type: biochemical; settings: Table A; read-out: CK2A1 (CK2α/β) (IC50)
Sequence (P68400 whole entry, species assumed): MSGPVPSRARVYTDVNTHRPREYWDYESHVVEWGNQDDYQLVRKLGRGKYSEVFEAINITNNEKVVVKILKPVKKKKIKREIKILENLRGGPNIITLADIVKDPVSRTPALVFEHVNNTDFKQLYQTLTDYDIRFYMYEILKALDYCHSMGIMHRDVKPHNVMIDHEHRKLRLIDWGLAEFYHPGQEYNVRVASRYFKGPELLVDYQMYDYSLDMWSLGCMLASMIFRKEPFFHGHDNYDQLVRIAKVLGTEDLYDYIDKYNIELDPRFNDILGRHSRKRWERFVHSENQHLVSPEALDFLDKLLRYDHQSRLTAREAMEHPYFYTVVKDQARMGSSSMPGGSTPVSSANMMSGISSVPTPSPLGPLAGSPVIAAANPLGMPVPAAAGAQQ
Sequence (P67870 whole entry partner, species assumed): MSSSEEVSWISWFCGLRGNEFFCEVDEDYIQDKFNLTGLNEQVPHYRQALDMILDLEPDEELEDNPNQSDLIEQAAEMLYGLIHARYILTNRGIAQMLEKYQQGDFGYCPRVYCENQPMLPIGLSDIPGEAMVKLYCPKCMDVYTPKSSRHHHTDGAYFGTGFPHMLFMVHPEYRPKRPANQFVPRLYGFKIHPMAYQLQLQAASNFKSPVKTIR

SMILES	IC50 [nM]
CCNc1nc(Nc2cc(C#N)cc(N3CC[C@H]4NCCO[C@@H]4C3)c2Cl)nn2c(C#N)cnc12 (racemic) [Example 371, (+/−)-2-((2-chloro-5-cyano-3-((4aR,8aR)-hexahydro-1H-pyrido[3,4-b][1,4]oxazin-6(7H)-yl)phenyl)amino)-4-(ethylamino)imidazo[2,1-f][1,2,4]triazine-7-carbonitrile]	3.61
CCNc1nc(Nc2cc(C(N)=O)cc(N3CC[C@H](NC(=O)OC)[C@@H](O)C3)c2Cl)nn2c(C#N)cnc12 (racemic) [Example 389, (+/−)-methyl ((3R,4R)-1-(5-carbamoyl-2-chloro-3-((7-cyano-4-(ethylamino)imidazo[2,1-f][1,2,4]triazin-2-yl)amino)phenyl)-3-hydroxypiperidin-4-yl)carbamate]	3.39
CCNc1nc(Nc2cc(C#N)cc(N3CCN4C[C@H](O)C[C@H]4C3)c2Cl)nn2c(C#N)cnc12 (racemic) [Example 436, (+/−)-2-((2-chloro-5-cyano-3-((7R,8aS)-7-hydroxyhexahydropyrrolo[1,2-a]pyrazin-2(1H)-yl)phenyl)amino)-4-(ethylamino)imidazo[2,1-f][1,2,4]triazine-7-carbonitrile]	2.51
N#Cc1cc(Nc2nc(NC3CC3)c3ncc(C#N)n3n2)c(Cl)c(N2CCC3C(CCN3[C@H]3COC[C@@H]3O)C2)c1 (mixture of isomers) [Example 451, (+/−)-2-((2-chloro-5-cyano-3-(1-((3S,4R)-4-hydroxytetrahydrofuran-3-yl)hexahydro-1H-pyrrolo[3,2-c]pyridin-5(6H)-yl)phenyl)amino)-4-(cyclopropylamino)imidazo[2,1-f][1,2,4]triazine-7-carbonitrile]	5.52
CN1CCC2CCN(c3cc(C#N)cc(Nc4nc(NC5CC5)c5ncc(C#N)n5n4)c3Cl)CC21 (racemic) [Example 456]	2.9
N#Cc1cc(Nc2nc(NC3CC3)c3ncc(C#N)n3n2)c(Cl)c(N2CCC3CCN(C4COC4)C3C2)c1 (racemic) [Example 457, (+/−)-2-((2-chloro-5-cyano-3-(1-(oxetan-3-yl)hexahydro-1H-pyrrolo[2,3-c]pyridin-6(2H)-yl)phenyl)amino)-4-(cyclopropylamino)imidazo[2,1-f][1,2,4]triazine-7-carbonitrile]	4.9
COC(=O)N1CCC2CCN(c3cc(C#N)cc(Nc4nc(NC5CC5)c5ncc(C#N)n5n4)c3Cl)CC21 (racemic) [Example 458, (+/−)-methyl 6-(2-chloro-5-cyano-3-((7-cyano-4-(cyclopropylamino)imidazo[2,1-f][1,2,4]triazin-2-yl)amino)phenyl)octahydro-1H-pyrrolo[2,3-c]pyridine-1-carboxylate]	16.4
N#Cc1cc(Nc2nc(NC3CC3)c3ncc(C#N)n3n2)c(Cl)c(N2CCC3CCN(CC(O)CF)C3C2)c1 (racemic) [Example 459, (+/−)-2-((2-chloro-5-cyano-3-(1-(3-fluoro-2-hydroxypropyl)hexahydro-1H-pyrrolo[2,3-c]pyridin-6(2H)-yl)phenyl)amino)-4-(cyclopropylamino)imidazo[2,1-f][1,2,4]triazine-7-carbonitrile]	1.27
CC(O)CN1CCC2CCN(c3cc(C#N)cc(Nc4nc(NC5CC5)c5ncc(C#N)n5n4)c3Cl)CC21 (racemic) [Example 460, (+/−)-2-((2-chloro-5-cyano-3-(1-(2-hydroxypropyl)hexahydro-1H-pyrrolo[2,3-c]pyridin-6(2H)-yl)phenyl)amino)-4-(cyclopropylamino)imidazo[2,1-f][1,2,4]triazine-7-carbonitrile]	1.62
N#Cc1cc(Nc2nc(NC3CC3)c3ncc(C#N)n3n2)c(F)c(N2CCN([C@@H]3COC[C@H]3O)CC2)c1 (racemic) [Example 552, rac-2-((5-cyano-2-fluoro-3-(4-((3R,4S)-4-hydroxytetrahydrofuran-3-yl)piperazin-1-yl)phenyl)amino)-4-(cyclopropylamino)imidazo[2,1-f][1,2,4]triazine-7-carbonitrile]	6.31
N#Cc1cc(Nc2nc(NC3CC3)c3ncc(C#N)n3n2)c(F)c(N2CCN([C@@H]3CS(=O)(=O)C[C@H]3O)CC2)c1 (racemic) [Example 553, rac-2-((5-cyano-2-fluoro-3-(4-((3R,4R)-4-hydroxy-1,1-dioxidotetrahydrothiophen-3-yl)piperazin-1-yl)phenyl)amino)-4-(cyclopropylamino)imidazo[2,1-f][1,2,4]triazine-7-carbonitrile]	5.55

Further molecules by falling IC50, results first:

IC50 [nM]	SMILES
1.25	N#Cc1cc(Nc2nc(NC3CC3)c3ncc(C#N)n3n2)c(Cl)c(N2CCC3CCNC3C2)c1 (racemic) [Example 454, (+/−)-2-((2-chloro-5-cyano-3-(hexahydro-1H-pyrrolo[2,3-c]pyridin-6(2H)-yl)phenyl)amino)-4-(cyclopropylamino)imidazo[2,1-f][1,2,4]triazine-7-carbonitrile]
1.13	N#Cc1cc(Nc2nc(NC3CC3)c3ncc(C#N)n3n2)c(Cl)c(N2CCN3C[C@H](O)C[C@@H]3C2)c1 (racemic) [Example 435, (+/−)-2-((2-chloro-5-cyano-3-((7R,8aR)-7-hydroxyhexahydropyrrolo[1,2-a]pyrazin-2(1H)-yl)phenyl)amino)-4-(cyclopropylamino)imidazo[2,1-f][1,2,4]triazine-7-carbonitrile]
0.99	CCNc1nc(Nc2cc(C#N)cc(N3CC[C@@H]4[C@@H](C3)OCCN4C)c2Cl)nn2c(C#N)cnc12 (racemic) [Example 373, (+/−)-2-((2-chloro-5-cyano-3-((4aR,8 aR)-1-methylhexahydro-1H-pyrido[3,4-b][1,4]oxazin-6(7H)-yl)phenyl)amino)-4-(ethylamino)imidazo[2,1-f][1,2,4]triazine-7-carbonitrile]
0.97	CN1CC2CC1CN2c1cc(C#N)cc(Nc2nc(NCC(F)(F)F)c3ncc(C#N)n3n2)c1Cl (racemic) [Example 430, (+/−)-2-((2-chloro-5-cyano-3-((1R,4R)-5-methyl-2,5-diazabicyclo[2.2.1]heptan-2-yl)phenyl)amino)-4-((2,2,2-trifluoroethyl)amino)imidazo[2,1-f][1,2,4]triazine-7-carbonitrile]
0.94	CCNc1nc(Nc2cc(C#N)cc(N3CC[C@@H]4[C@@H](C3)OCCN4C(=O)OC)c2Cl)nn2c(C#N)cnc12 (racemic) [Example 372, (+/−)-(4aR,8aR)-methyl 6-(2-chloro-5-cyano-3-((7-cyano-4-(ethylamino)imidazo[2,1-f][1,2,4]triazin-2-yl)amino)phenyl)octahydro-1H-pyrido[3,4-b][1,4]oxazine-1-carboxylate]
0.91	N#Cc1cc(Nc2nc(NC3CC3)c3ncc(C#N)n3n2)c(Cl)c(N2CCN([C@@H]3CS(=O)(=O)C[C@H]3O)CC2)c1 (racemic) [Example 535, rac-2-((2-chloro-5-cyano-3-(4-((3R,4R)-4-hydroxy-1,1-dioxidotetrahydrothiophen-3-yl)piperazin-1-yl)phenyl)amino)-4-(cyclopropylamino)imidazo[2,1-f][1,2,4]triazine-7-carbonitrile]
0.89	CC(O)CN1CCC2CN(c3cc(C#N)cc(Nc4nc(NC5CC5)c5ncc(C#N)n5n4)c3Cl)CCC21 (racemic) [Example 447, (+/−)-2-((2-chloro-5-cyano-3-(1-(2-hydroxypropyl)hexahydro-1H-pyrrolo[3,2-c]pyridin-5(6H)-yl)phenyl)amino)-4-(cyclopropylamino)imidazo[2,1-f][1,2,4]triazine-7-carbonitrile]
0.88	N#Cc1cc(Nc2nc(NC3CC3)c3ncc(C#N)n3n2)c(Cl)c(OC2CNCCOC2)c1 (racemic) [Example 440, (+/−)-2-((3-((1,4-oxazepan-6-yl)oxy)-2-chloro-5-cyanophenyl)amino)-4-(cyclopropylamino)imidazo[2,1-f][1,2,4]triazine-7-carbonitrile]
0.83	N#Cc1cc(Nc2nc(NC3CC3)c3ncc(C#N)n3n2)c(Cl)c(N2CCN3C[C@@H](F)C[C@H]3C2)c1 (racemic) [Example 437, (+/−)-2-((2-chloro-5-cyano-3-((7R,8aR)-7-fluorohexahydropyrrolo[1,2-a]pyrazin-2(1H)-yl)phenyl)amino)-4-(cyclopropylamino)imidazo[2,1-f][1,2,4]triazine-7-carbonitrile]
0.77	N#Cc1cc(Nc2nc(NC3CC3)c3ncc(C#N)n3n2)c(Cl)c(N2CCC3NCCC3C2)c1 (racemic) [Example 442, 2-((2-chloro-5-cyano-3-(hexahydro-1H-pyrrolo[3,2-c]pyridin-5(6H)-yl)phenyl)amino)-4-(cyclopropylamino)imidazo[2,1-f][1,2,4]triazine-7-carbonitrile]
0.73	N#Cc1cc(Nc2nc(NC3CC3)c3ncc(C#N)n3n2)c(Cl)c(N2CCN3CC[C@H](O)[C@H]3C2)c1 (racemic) [Example 438, (+/−)-2-((2-chloro-5-cyano-3-((8R,8aS)-8-hydroxyhexahydropyrrolo[1,2-a]pyrazin-2(1H)-yl)phenyl)amino)-4-(cyclopropylamino)imidazo[2,1-f][1,2,4]triazine-7-carbonitrile]
0.65	N#Cc1cc(Nc2nc(NC3CC3)c3ncc(C#N)n3n2)c(Cl)c(C2CCN(CC(O)CF)CC2)c1 (racemic) [Example 380, (+/−)-2-((2-chloro-5-cyano-3-(1-(3-fluoro-2-hydroxypropyl)-4-piperidinyl)phenyl)amino)-4-(cyclopropylamino)imidazo[2,1-f][1,2,4]triazine-7-carbonitrile]
0.61	N#Cc1cc(Nc2nc(NC3CC3)c3ncc(C#N)n3n2)c(Cl)c(N2CCN3C[C@H](O)C[C@H]3C2)c1 (racemic) [Example 434, (+/−)-2-((2-chloro-5-cyano-3-((7R,8aS)-7-hydroxyhexahydropyrrolo[1,2-a]pyrazin-2(1H)-yl)phenyl)amino)-4-(cyclopropylamino)imidazo[2,1-f][1,2,4]triazine-7-carbonitrile]
0.38	N#Cc1cc(Nc2nc(NC3CC3)c3ncc(C#N)n3n2)c(Cl)c(OC2CCN(C3COC3)C2)c1 (racemic) [Example 426, (+/−)-2-((2-chloro-5-cyano-3-((1-(oxetan-3-yl)pyrrolidin-3-yl)oxy)phenyl)amino)-4-(cyclopropylamino)imidazo[2,1-f][1,2,4]triazine-7-carbonitrile]
